Assay results published in the supplement of paper PMC10307832.

Key:
Assay in all cases: relative viability (nuclei count vs DMSO), 5 days (fraction); higher = more cells survive
[1] = compound: CCC1=CN=CN=C1N2CCN(CC2)CC3=NC4=C(N3)C=C(C=C4)C(F)(F)F + CCNC(=O)c1noc(-c2cc(C(C)C)c(O)cc2O)c1-c1ccc(CN2CCOCC2)cc1 [Luminespib] (partner 0.01 µM)
Method in brief: (§1)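 Each reported value is a median over duplicate plates. It expresses relative viability: treated-well nuclei count divided by vehicle-well nuclei count. Lung cancer cell lines in 1536-well plates were dosed by pin tool a day after seeding, alone with one drug or with a fixed anchor-drug dose plus five library-drug doses (not always all listed) in √10 steps, and nuclei were counted after 5 days.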

[2] = compound: CCC1=CN=CN=C1N2CCN(CC2)CC3=NC4=C(N3)C=C(C=C4)C(F)(F)F + CS(=O)(=O)CCNCc1ccc(-c2ccc3ncnc(Nc4ccc(OCc5cccc(F)c5)c(Cl)c4)c3c2)o1 [Lapatinib] (partner 2 µM)
Method in brief: as §1

[3] = compound: CCC1=CN=CN=C1N2CCN(CC2)CC3=NC4=C(N3)C=C(C=C4)C(F)(F)F + NC(=O)Nc1cc(-c2cccc(F)c2)sc1C(=O)N[C@H]1CCCNC1 [AZD7762] (partner 0.2 µM)
Method in brief: as §1

[4] = compound: N=C1NC(=O)/C(=C/c2ccc(O)cc2)S1 [Mirin] + CS(=O)(=O)N1CCN(Cc2cc3nc(-c4cccc5[nH]ncc45)nc(N4CCOCC4)c3s2)CC1 [Pictilisib] (partner 1 µM)
Method in brief: as §1

Row | Cell Line | relative viability ([1]; first compound 0.04 µM) | relative viability ([1]; first compound 0.1265 µM) | relative viability ([1]; first compound 0.4 µM) | relative viability ([1]; first compound 1.265 µM) | relative viability ([1]; first compound 4 µM) | relative viability ([2]; first compound 0.04 µM) | relative viability ([2]; first compound 0.1265 µM) | relative viability ([2]; first compound 0.4 µM) | relative viability ([2]; first compound 1.265 µM) | relative viability ([2]; first compound 4 µM) | relative viability ([3]; first compound 0.04 µM) | relative viability ([3]; first compound 0.1265 µM) | relative viability ([3]; first compound 0.4 µM) | relative viability ([3]; first compound 1.265 µM) | relative viability ([3]; first compound 4 µM) | relative viability ([4]; first compound 0.25 µM) | relative viability ([4]; first compound 2.5 µM) | relative viability ([4]; first compound 7.906 µM) | relative viability ([4]; first compound 25 µM) | relative viability ([4]; first compound 0.7906 µM)
1 | NCI-H1915 | 0.699 | 0.827 | 0.75 | 0.639 | 0.688 | 0.927 | 0.89 | 0.995 | 0.957 | 1.06 | 0.684 | 0.688 | 0.694 | 0.597 | 0.734 | 0.98 | 1.04 | 0.916 | 0.935 | 
2 | NCI-H2009 | 1.1 | 0.966 | 1.02 | 1.06 | 0.87 | 1.07 | 1 | 0.894 | 0.715 | 0.808 |  |  |  |  |  | 0.919 | 0.871 | 0.66 | 0.6 | 0.706
3 | ChaGo-K-1 | 0.566 | 0.591 | 0.62 | 0.548 | 0.432 |  |  |  |  |  | 0.835 | 0.836 | 0.881 | 0.816 | 0.961 | 0.667 | 0.713 | 0.571 | 0.693 | 
4 | COR-L 105 | 0.8 | 1.08 | 0.77 | 0.724 | 0.732 | 0.35 | 0.331 | 0.395 | 0.275 | 0.426 |  |  |  |  |  | 0.407 | 0.397 | 0.373 | 0.326 | 0.263
5 | NCI-H2170 | 0.577 | 0.6 | 0.712 | 0.748 | 0.823 | 0.277 | 0.263 | 0.267 | 0.27 | 0.296 | 0.899 | 0.832 | 0.83 | 0.724 | 0.941 | 0.327 | 0.281 | 0.247 | 0.253 | 0.217
6 | A549 |  |  |  |  |  | 0.885 | 0.948 | 0.823 | 0.945 | 0.808 |  |  |  |  |  | 0.541 | 0.55 | 0.403 | 0.321 | 0.512
7 | NCI-H1975 | 0.283 | 0.302 | 0.176 | 0.199 | 0.205 | 1.16 | 0.824 | 0.851 | 0.739 | 0.846 | 0.662 | 0.744 | 0.713 | 0.645 | 0.746 | 0.307 | 0.302 | 0.355 | 0.282 | 0.251
8 | Calu-6 |  |  |  |  |  | 1.1 | 1.11 | 1.05 | 0.988 | 1.03 |  |  |  |  |  | 0.997 | 0.862 | 0.761 | 0.597 | 0.934
9 | NCI-H1648 |  |  |  |  |  |  |  |  |  |  | 0.666 |  |  | 0.655 | 0.683 |  |  |  |  | 
10 | NCI-H1623 | 0.44 | 0.513 | 0.383 | 0.476 | 0.651 |  |  |  |  |  |  |  |  |  |  |  |  |  |  | 
11 | NCI-H322M | 0.988 | 0.846 | 0.808 | 0.805 | 0.918 | 0.631 | 0.571 | 0.575 | 0.499 | 0.682 | 0.538 | 0.591 | 0.572 | 0.511 | 0.653 | 0.5 | 0.492 | 0.567 | 0.583 | 0.419
